# Laboratory results taken from the METLIN SMRT retention time set (Domingo-Almenara et al. 2019).
# Experiment: gradient 5% acetonitrile 3 min, to 50% in 2 min, to 85% in 15 min, held 3 min, 100 µL/min
# Conditions: column: Zorbax Extend-C18 2.1 x 50 mm; eluents: water / acetonitrile, 0.1% formic acid
# Summary of the method: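 Retention times of pure standards were taken from adduct peaks that were selected by computer and manually inspected. Over 3 months, mixtures of ~100 molecules were run by HPLC–quadrupole time-of-flight mass spectrometry in positive and negative ionization mode. The Zorbax Extend-C18 column (2.1 × 50 mm, 1.8 μm) ran at 100 μL/min in water and acetonitrile, each containing 0.1% formic acid, with 40 μL dead volume and 900 μL dwell volume.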
row,Compound,RP-LC retention time [s]
1,Cc1csc(-c2ccc(N3CCN(C(=O)c4ccsc4)CC3)nc2)n1,762
2,Cc1ccc(-c2ccc(-n3nc(C)c(S(=O)(=O)N4CCN(C(C)C)CC4)c3C)nn2)cc1C,785
3,COc1ccccc1-c1nc2nccc(-c3ccc(Cl)cc3)n2n1,956
4,Cc1nn(C)c(C)c1CCCN(C)C(=O)c1cc2c(s1)N(C)CCCC2,770
5,COC(=O)c1ncn2c1C(=O)N(c1cccc(C)c1C)C(C)(C(=O)NC1CCCC1)C2 (stereo not given),734
6,Cc1nnc(C2CC3(CCN(CCCO)CC3)CN2CCc2ccccc2)o1 (stereo not given),572
7,O=C(NCCc1c[nH]c2ccccc12)c1noc2c1CSc1ccccc1-2,1130
8,Cc1ccc(CNC(=O)C2(C)CCCN(C(=O)Nc3ccc(F)c(Cl)c3)C2)cc1 (stereo not given),1030
9,CC(C)c1ccc(Nc2c(-c3ccc(O)cc3)nc3ncccn23)cc1,713
10,CCc1ccc(NC(=O)Cn2ncc3c(c2=O)N(C2CC2)C(=O)CS3)cc1,797
11,CC(C)c1cc(C(=O)Nc2ccc(F)c(F)c2)nc2ccnn12,1180
12,O=S(=O)(Cc1ccc(Cl)cc1)c1ccc(N2CCN(c3ccccn3)CC2)nn1,654
13,CC(CN1CC(=O)NC(=O)C1)N1CC(=O)NC(=O)C1 (stereo not given),530
14,CN(CCc1noc(COc2ccc(Cl)cc2)n1)C(=O)c1ccco1,856
15,COC(=O)c1ccc(CNC2CCN(c3ccc(C(=O)NC4CC4)cn3)C2)cc1 (stereo not given),552
16,Cc1ccc2c(=O)c3c([nH]c2c1C)CCN(CC(=O)NCc1ccccc1F)C3,621
17,Cc1ccc(-c2ccc(CNc3ncn[nH]3)o2)cc1Cl,731
18,COc1ccc(CNC(=O)C2CCCN(c3cc(=O)n(C)c(=O)n3C)C2)cc1 (stereo not given),663
19,O=C(c1ccccc1OCC1CCCN(C2CCC2)C1)N1CCCCC1 (stereo not given),632
20,CS(=O)(=O)N1CCC(C(=O)Nc2ccc3cn[nH]c3c2)CC1,588
21,Cc1ccc(Nc2c(-c3ccc(C)cc3)nc3ncccn23)cc1,802
22,Cn1c(=O)c(N2CCC(NC(=O)Nc3ccccc3Cl)CC2)nc2ccccc21,904
23,COCCOC1CCN(S(=O)(=O)c2cccc(OC)c2)CC1,811

row,Compound,RP-LC retention time [s]
1,Cc1csc(COc2ccc(C(=O)Nc3ccccc3OC(F)(F)F)cc2)n1,933
2,O=c1n(Cc2ccc(F)cc2Cl)nc2ccc(S(=O)(=O)N3CCCCC3)cn12,990
3,COC(=O)c1ccc(C2CC(=O)NC3=C2C(=O)CCC3)cc1 (stereo not given),653
4,CCCNC(=O)C1CCCN(c2ccc(SCC(=O)Nc3ccc(C(=O)OCC)cc3)nn2)C1 (stereo not given),701
5,Cc1nnc(-c2ccc3ccn(CC(=O)Nc4ccc(F)cc4F)c3c2)o1,801
6,NS(=O)(=O)c1ccc(NC(=O)c2ccc(S(=O)(=O)c3ccc(Cl)cc3)s2)cc1,877
7,O=C(Nc1cnc(N2CCCCCC2)nc1)c1cc(F)ccc1F,967
8,COc1ccc(NC(=O)NC(C(=O)N2CCc3ccccc32)C(C)C)cc1OC (stereo not given),830
9,CC1=C(c2ccc(F)cc2)S(=O)(=O)N=C1N1CCCN(C(=O)NCCC(C)C)CC1,837
10,COc1cccc(-c2cc(C(=O)NCCC3=CCCCC3)n(C)n2)c1,1060
11,COc1ccc(NC(=O)N2CCCC2C(=O)Nc2ccc(C)c(Cl)c2)cc1 (stereo not given),880
12,CS(=O)(=O)N1CCCC1C(=O)Nc1cccc(F)c1 (stereo not given),730
13,Cc1cc(Cl)ccc1NC(=O)N1C[C@@H]2C[C@H](NC(=O)c3ccccc3)[C@H]1C2,907
14,O=C(CCC(=O)N1CC2CCCN2c2ccccc21)NCCN1CCOCC1 (stereo not given),620
15,CCc1nc2cc(N3CCC(C(=O)NCCN4CCOCC4)CC3)cnc2nc1CC,581
16,COc1cc(NC(=O)N2CCC(c3nc(C(=O)N(C)C)c(C)o3)CC2)cc(OC)c1,711
17,Cc1nc(CC(=O)Nc2nc(-c3ccc(C)c(C)c3)cs2)cs1,989
18,CCc1nc2ccc(-c3noc(-c4cccc(C#N)c4)n3)cc2n1CC,710
19,Cn1c(=O)c2cc(C(=O)NCc3cc(F)ccc3F)nn2c2ccccc21,869
20,CCn1cnc(S(=O)(=O)N2CCC(C(=O)Nc3cccc(C)c3C)CC2)c1,721
21,Cc1csc(-c2ccc(N3CCN(C(=O)c4cc5ccccc5[nH]4)CC3)nc2)n1,852
22,CC1(C(N)=O)CC(c2ccccc2)=NO1 (stereo not given),828
23,Cn1c(=O)n(CCN2CCOCC2)c(=O)c2c1nc1n2CCCN1c1ccc(Br)cc1,638

row,Compound,RP-LC retention time [s]
1,COCc1cc2nn(CC(=O)Nc3ccccc3F)c(=O)n2c(-c2ccccc2)n1,795
2,Cc1ccc(C)c2c(=O)c3c([nH]c12)CCN(CC(=O)Nc1ccc(F)cc1)C3,634
3,NC(=O)Nc1cc(-c2cccc(F)c2)sc1C(=O)N[C@H]1CCCNC1,650
4,CCOC(=O)CCC(=O)Nc1cccc2ccc(OC)nc12,904
5,CCc1noc(-c2ccnc(-n3ncc(C(=O)N4CCSCC4)c3C)c2)n1,904
6,CCc1nccn1Cc1noc(-c2cccs2)n1,593
7,Cc1nn(-c2ccccc2)c(C)c1/C=C1\Oc2cc(O)ccc2C1=O,782
8,COc1cccc(-c2cc3n(n2)CCCN(C(=O)c2ccc(OC)c(OC)c2)C3)c1,654
9,Cc1nc2c(sc3nc(-c4ccccc4)ccc32)c(=O)n1CC(=O)Nc1cccc(Cl)c1,1120
10,Cc1cc(C)cc(C(=O)N2CCN(c3nc(C)cc(N4CCCC4)n3)CC2)c1,735
11,Cc1ccsc1C(=O)NCC1CN(C(C)C)CC12CCCCC2 (stereo not given),652
12,COc1ccc(-n2c(CN3CCN(C(=O)NC4CCCCC4)CC3)nc3cccnc32)cc1,668
13,Cc1ccc(NC(=O)C(C)Oc2cc(C(F)(F)F)c3c(C)nn(C)c3n2)cc1C (stereo not given),586
14,O=C(Cn1nc(C2CC2)cc1C(=O)N1CCCC1)Nc1ccc(F)c(F)c1,789
15,Cc1nn(C(C)C)c(C)c1S(=O)(=O)N1CCN(C(=O)C(C)Oc2ccccc2)CC1 (stereo not given),665
16,COCCc1nncn1C1CN(Cc2cccc(OC(F)(F)F)c2)C1,606
17,Cc1ccccc1-c1nc(-c2ccc(N3CCSCC3)nc2)no1,1320
18,O=C(NC1CCN(C(=O)c2cc(-c3cccc(Cl)c3)n[nH]2)CC1)c1cccs1,718
19,COc1ccccc1NS(=O)(=O)c1cc2c(s1)CCN(C(=O)C1CCC1)C2,890
20,COC(=O)c1c(-c2ccc(Cl)cc2)noc1NCCN1CCOCC1,660
21,O=C(COc1ccc(-c2cnc3ccccc3n2)cc1)Nc1ccccn1,852
22,N#Cc1cn(CC(=O)NCc2ccc3c(c2)OCCCO3)c2ccccc12,842
23,Cc1cnc(C2CN(CC3CCCCC3)C2)n1Cc1ccccc1,600

row,Compound,RP-LC retention time [s]
1,Cc1ccc(-c2noc(Cn3ncn4nc(-c5cc(C)ccc5C)cc4c3=O)n2)cc1,878
2,Cc1ccc(S(=O)(=O)NCCc2cn(CC(C)C)c3ncccc23)cc1,921
3,CCn1cnnc1C1CCN(C(=O)c2ccc3c(c2)OCO3)CC1,534
4,CCOc1ccc(S(=O)(=O)N2CCC(C(=O)NCCO)CC2)cc1,665
5,CCOc1ccc(-c2[nH]ncc2CNS(=O)(=O)Cc2cc(F)cc(F)c2)cc1,845
6,Cc1noc(C)c1CN1CCC(NC(=O)c2cc3ccccc3[nH]2)CC1,621
7,Cc1nc(-c2ccc(-c3noc(C(C)Oc4ccccc4)n3)cc2)cs1 (stereo not given),1210
8,O=C(N1CCOC(c2ccc(C(F)(F)F)cc2)C1)C1(c2ccc(F)cc2)CC1 (stereo not given),1020
9,Cc1ccccc1CNC(=O)CCc1c(-c2ccc(Br)cc2)nc2ccccn12,722
10,Cc1nc2cc(-c3noc(-c4ccc(Cl)cc4)n3)ccc2n(C)c1=O,872
11,O=C(N[C@H]1C[C@@H]2C[C@H]1N(C(=O)c1ccccc1OC(F)(F)F)C2)c1cccnc1,641
12,Cc1ccsc1C(=O)N1C[C@@H](F)C[C@H]1C(=O)N1CCCCC1,695
13,CCOc1ccc(C(C)NC(=O)c2cc(NC(C)=O)cc3nc(C)ccc23)cc1 (stereo not given),649
14,COc1ccc(S(=O)(=O)N2CCCC(C(=O)NC3CCCCC3)C2)cc1C (stereo not given),962
15,Cc1ccc(N2C=C(C(=O)N3CCC(C)CC3)S(=O)(=O)c3ccccc32)cc1F,974
16,CC(C)n1cc(S(=O)(=O)Nc2ccc(Cl)cc2F)c2cccnc21,950
17,O=C(NCc1cccc(Cl)c1)C1CCCN(c2ncnc3c2nc2n3CCCCC2)C1 (stereo not given),804
18,CCNC(=O)N1CC(c2nc(-c3cccnc3)no2)C2(CCOCC2)C1 (stereo not given),597
19,O=C(Cn1c(-c2cccnc2)nc2ccccc21)Nc1ccc(OC(F)(F)F)cc1,853
20,CCN1CCN(CCNC(=O)c2cc(=O)n3c(nc4ccccc43)s2)CC1,604
21,O=C(Nc1cc(-c2cccs2)no1)c1cc(F)cc(F)c1,1010
